Results: ChEMBL document CHEMBL1154484, “A QSAR study for the cytotoxic activities of taxoids against macrophage (MPhi)-like cells” (Eur J Med Chem, 2009)

Assays:
[1] = Cytotoxicity against mouse J7.DEF.3 cells; assay type: cell-based
[2] = Cytotoxicity against mouse J774.1 cells; assay type: cell-based

CC(=O)O[C@H]1C(=O)[C@@]2(C)[C@H]([C@H](OC(=O)c3ccccc3)[C@]3(O)C[C@H](OC(=O)[C@H](O)[C@@H](NC(=O)c4ccc(F)cc4F)c4ccccc4)C(C)=C1C3(C)C)[C@]1(OC(C)=O)CO[C@@H]1C[C@@H]2O
log(1/C) [1]: 7.6
log(1/C) [2]: 7.59

CC(=O)O[C@H]1C(=O)[C@@]2(C)[C@H]([C@H](OC(=O)c3ccccc3)[C@]3(O)C[C@H](OC(=O)[C@H](O)[C@@H](NC(=O)c4ccc(C)cc4)c4ccccc4)C(C)=C1C3(C)C)[C@]1(OC(C)=O)CO[C@@H]1C[C@@H]2O
log(1/C) [1]: 7.82
log(1/C) [2]: 7.77

CC(=O)O[C@H]1C(=O)[C@@]2(C)[C@H]([C@H](OC(=O)c3ccccc3)[C@]3(O)C[C@H](OC(=O)[C@H](O)[C@@H](NC(=O)/C=C/c4ccccc4)c4ccccc4)C(C)=C1C3(C)C)[C@]1(OC(C)=O)CO[C@@H]1C[C@@H]2O
log(1/C) [1]: 7.11
log(1/C) [2]: 7.52

CC(=O)O[C@H]1C(=O)[C@@]2(C)[C@H]([C@H](OC(=O)c3ccccc3)[C@]3(O)C[C@H](OC(=O)[C@H](O)[C@@H](NC(=O)c4ccc(Cl)cc4)c4ccccc4)C(C)=C1C3(C)C)[C@]1(OC(C)=O)CO[C@@H]1C[C@@H]2O
log(1/C) [1]: 7.59
log(1/C) [2]: 7.52

CC(=O)O[C@H]1C(=O)[C@@]2(C)[C@H]([C@H](OC(=O)c3ccccc3)[C@]3(O)C[C@H](OC(=O)[C@H](O)[C@@H](NC(=O)c4ccc(F)cc4)c4ccccc4)C(C)=C1C3(C)C)[C@]1(OC(C)=O)CO[C@@H]1C[C@@H]2O
log(1/C) [1]: 7.77
log(1/C) [2]: 7.68

CC(=O)O[C@@]12CO[C@@H]1C[C@H](O)[C@@]1(C)C(=O)[C@H](O)C3=C(C)[C@@H](OC(=O)[C@H](O)[C@@H](NC(=O)OC(C)(C)C)c4ccccc4)C[C@@](O)([C@@H](OC(=O)c4ccccc4)[C@H]21)C3(C)C.O.O.O [DOCETAXEL]
log(1/C) [1]: 8.14
log(1/C) [2]: 8.24

CC(=O)O[C@H]1C(=O)[C@@]2(C)[C@H]([C@H](OC(=O)c3ccccc3)[C@]3(O)C[C@H](OC(=O)[C@H](O)[C@@H](NC(=O)c4ccc(C(C)(C)C)cc4)c4ccccc4)C(C)=C1C3(C)C)[C@]1(OC(C)=O)CO[C@@H]1C[C@@H]2O
log(1/C) [1]: 7.6
log(1/C) [2]: 7.62

COc1ccc(C(=O)N[C@@H](c2ccccc2)[C@@H](O)C(=O)O[C@H]2C[C@@]3(O)[C@@H](OC(=O)c4ccccc4)[C@@H]4[C@]5(OC(C)=O)CO[C@@H]5C[C@H](O)[C@@]4(C)C(=O)[C@H](OC(C)=O)C(=C2C)C3(C)C)c(OC)c1
log(1/C) [1]: 7.08
log(1/C) [2]: 7.12

COc1ccc(C(=O)N[C@@H](c2ccccc2)[C@@H](O)C(=O)O[C@H]2C[C@@]3(O)[C@@H](OC(=O)c4ccccc4)[C@@H]4[C@]5(OC(C)=O)CO[C@@H]5C[C@H](O)[C@@]4(C)C(=O)[C@H](OC(C)=O)C(=C2C)C3(C)C)cc1OC
log(1/C) [1]: 7.24
log(1/C) [2]: 7.21

CCCc1ccc(C(=O)N[C@@H](c2ccccc2)[C@@H](O)C(=O)O[C@H]2C[C@@]3(O)[C@@H](OC(=O)c4ccccc4)[C@@H]4[C@]5(OC(C)=O)CO[C@@H]5C[C@H](O)[C@@]4(C)C(=O)[C@H](OC(C)=O)C(=C2C)C3(C)C)cc1
log(1/C) [1]: 7.77
log(1/C) [2]: 7.74

CC(=O)O[C@H]1C(=O)[C@@]2(C)[C@H]([C@H](OC(=O)c3ccccc3)[C@]3(O)C[C@H](OC(=O)[C@H](O)[C@@H](NC(=O)Cc4ccccc4)c4ccccc4)C(C)=C1C3(C)C)[C@]1(OC(C)=O)CO[C@@H]1C[C@@H]2O
log(1/C) [1]: 7.32
log(1/C) [2]: 7.11

CC(=O)O[C@H]1C(=O)[C@@]2(C)[C@H]([C@H](OC(=O)c3ccccc3)[C@]3(O)C[C@H](OC(=O)[C@H](O)[C@@H](NC(=O)c4cccc5ccccc45)c4ccccc4)C(C)=C1C3(C)C)[C@]1(OC(C)=O)CO[C@@H]1C[C@@H]2O
log(1/C) [1]: 6.43
log(1/C) [2]: 7.17

COc1ccc(C(=O)N[C@@H](c2ccccc2)[C@@H](O)C(=O)O[C@H]2C[C@@]3(O)[C@@H](OC(=O)c4ccccc4)[C@@H]4[C@]5(OC(C)=O)CO[C@@H]5C[C@H](O)[C@@]4(C)C(=O)[C@H](OC(C)=O)C(=C2C)C3(C)C)cc1
log(1/C) [1]: 7.43
log(1/C) [2]: 7.23

CC(=O)O[C@H]1C(=O)[C@@]2(C)[C@H]([C@H](OC(=O)c3ccccc3)[C@]3(O)C[C@H](OC(=O)[C@H](O)[C@@H](NC(=O)c4ccc5ccccc5c4)c4ccccc4)C(C)=C1C3(C)C)[C@]1(OC(C)=O)CO[C@@H]1C[C@@H]2O
log(1/C) [1]: 7.26
log(1/C) [2]: 7.68

CC(=O)O[C@H]1C(=O)[C@@]2(C)[C@H]([C@H](OC(=O)c3ccccc3)[C@]3(O)C[C@H](OC(=O)[C@H](O)[C@@H](NC(=O)c4ccccc4)c4ccccc4)C(C)=C1C3(C)C)[C@]1(OC(C)=O)CO[C@@H]1C[C@@H]2O [PACLITAXEL]
log(1/C) [1]: 7.52
log(1/C) [2]: 7.48

CC(=O)O[C@H]1C(=O)[C@@]2(C)[C@H]([C@H](OC(=O)c3ccccc3)[C@]3(O)C[C@H](OC(=O)[C@H](O)[C@@H](NC(=O)c4ccc(-c5ccccc5)cc4)c4ccccc4)C(C)=C1C3(C)C)[C@]1(OC(C)=O)CO[C@@H]1C[C@@H]2O
log(1/C) [1]: 6.85
log(1/C) [2]: 7.31

CC(=O)O[C@H]1C(=O)[C@@]2(C)[C@H]([C@H](OC(=O)c3ccccc3)[C@]3(O)C[C@H](OC(=O)[C@H](O)[C@@H](NC(=O)c4ccco4)c4ccccc4)C(C)=C1C3(C)C)[C@]1(OC(C)=O)CO[C@@H]1C[C@@H]2O
log(1/C) [1]: 6.7
log(1/C) [2]: 8.3

CCc1ccc(C(=O)N[C@@H](c2ccccc2)[C@@H](O)C(=O)O[C@H]2C[C@@]3(O)[C@@H](OC(=O)c4ccccc4)[C@@H]4[C@]5(OC(C)=O)CO[C@@H]5C[C@H](O)[C@@]4(C)C(=O)[C@H](OC(C)=O)C(=C2C)C3(C)C)cc1
log(1/C) [1]: 7.85
log(1/C) [2]: 7.82

CC(=O)O[C@H]1C(=O)[C@@]2(C)[C@H]([C@H](OC(=O)c3ccccc3)[C@]3(O)C[C@H](OC(=O)[C@H](O)[C@@H](NC(=O)c4cccs4)c4ccccc4)C(C)=C1C3(C)C)[C@]1(OC(C)=O)CO[C@@H]1C[C@@H]2O
log(1/C) [1]: 7.8
log(1/C) [2]: 8.7
